Here are results for one compound from paper PMC5513091, “A novel Alzheimer’s disease drug candidate targeting inflammation and fatty acid metabolism” (Alzheimer's Research & Therapy, 2017).

For series [1], the system named is Primary embryonic day 18 cortical cells. The series can be described thus: Trophic factor withdrawal assay. Conditions: Cortical neurone; Cortical neuron; cell viability; read-out: Half-maximal effective concentration, Trophic factor withdrawal. Type of series: cell-based. The method, then: The various phenotypic screening assays were conducted as previously described. Briefly, HT-22, primary cortical neurons, or MC65 was plated and exposed to the different environmental stresses. Cells were treated with varying concentrations of CAD-31, and half-maximal effective concentration (EC50) was determined on the basis of cell viability.
• An assay that mimics the dramatic loss of neurotrophic support in the old brain is the trophic factor withdrawal assay. Primary embryonic day 18 cortical cells are plated at low density in serum-free medium. At low density, the cells die within 2 days; they can be rescued by combinations of neurotrophic growth factors, but not by one alone ([19] and unpublished data). […] BDNF is a molecule that is also involved in promoting memory and neurogenesis and is reduced in the brain with age and in AD, as well as in other neurological disorders. BDNF has long been considered a drug target for AD [23]. […] A reduction in GSH is a common denominator of old age and essentially all chronic central nervous system (CNS) diseases. J147 and CAD-31 both effectively reduce oxidative stress, with EC50 of 6 nM and 20 nM, respectively. • CAD-31 also prevents loss of energy metabolism that leads to neuron cell death in an in vitro ischemia model. […]

The nature of series [2]: Free feeding CAD-31 plasma and brain levels in mice. The class given is in vivo. The method, then: Sprague-Dawley rats had free access to food and water. CAD-31 was given by gavage to rats at 20 mg/kg in corn oil and intravenously in 15% HS 15/PBS. Whole-blood samples were collected from the jugular vein at every time point and brain collected after 20-ml saline perfusion. CAD-31 was extracted with acetonitrile and compared with standards on a TSQ Quantiva™ Triple Quadrupole Mass Spectrometer (Thermo Scientific, Waltham, MA, USA). For the mouse feeding studies, mice had free access to food containing 200 ppm CAD-31. Blood was collected by heart puncture, and the brain concentration was determined as with rats.

The test system of series [3] is Aβ1–42. The series can be described thus: Aβ enzyme-linked immunosorbent assay. The class given is in vivo, mice. As for the experimental part: Hippocampal tissue samples were homogenized in 10 volumes of radioimmunoprecipitation assay (RIPA) lysis buffer (50 mM Tris, pH 7.5, 150 mM NaCl, 0.1% SDS, 0.5% deoxycholate, and 1% Nonidet P-40) containing a cocktail of protease and phosphatase inhibitors [[…] each of pepstatin A, aprotinin, phosphoramidon, and leupeptin; 0.5 mM 4-(2-aminoethyl)benzenesulfonyl fluoride hydrochloride; 1 mM ethylene glycol-bis(β-aminoethyl ether)-N,N,N′,N′-tetraacetic acid; 5 mM fenvalerate; and 5 mM cantharidin]. Samples were sonicated (2 × 10 seconds) and centrifuged first at 10,000 × g for 10 minutes and then at 100,000 × g for 60 minutes at 4 °C. The 100,000 × g pellet was taken up either in 6 M guanidine for Aβ analysis or in SDS sample buffer for Western blot analysis. Protein concentrations in the cell extracts were determined using a bicinchoninic acid protein assay (Pierce Biotechnology, Rockford, IL, USA). Equal amounts of protein were solubilized in 2.5× SDS sample buffer, separated on 12% SDS-polyacrylamide gels, transferred to Immobilon-P (EMD Millipore, Billerica, MA, USA), and immunoblotted with the antibodies indicated in the Materials subsection above. For Western blot experiments, protein levels were normalized to actin levels. An unpaired t test was performed to compare two groups at a single time point. When comparing multiple groups, one-way analysis of variance (ANOVA) followed by Tukey’s post hoc test was used. All statistical analysis was conducted using GraphPad InStat software.
Aβ1–42 levels in hippocampal lysate were analyzed using Aβ1–42 enzyme-linked immunosorbent assay kits from Invitrogen (catalogue number KHB3442). All kit reagents were brought to room temperature before use. […] A quantity of 50 μl of Aβ peptide standards and samples was added in duplicate to 96-well plates precoated with antibody to the NH2-terminal region of Aβ. […] Stop solution was then added at 100 μl to each well, followed by reading the absorbance of each well at 450 nm. […] The concentrations of the samples were calculated from the standard curve and multiplied by the dilution factor.

For series [4], the system named is human neural precursor cells (NPCs). Further details: method as in PMID 27149904. The conditions noted are these: compared with J147; cited from earlier work.
[5] abbreviates: mice fed ad libitum, 200 ppm in chow (about 10 mg/kg/day).
The mark [6] stands for this setting: brain of CAD-31 treated hAPPswe/PS1ΔE9 mice (AD+31).

Consider `Cc1ccc(N(/N=C/c2cccc(OC(F)(F)F)c2)C(=O)C(F)(F)F)c(C)c1` [CAD-31], for which, in series [1], the EC50 was determined as 18 nM. In series [2] (setting [5]), the “maximum brain concentration, free-fed” value is on record as 53 nM and the “maximum plasma concentration, free-fed” value turned out to be 82 nM. Further, in series [2] (mice, 200 ppm in food), the “Free-Fed ~10 mg/kg/day Brain” value was 0.053 µM and the “Free-Fed ~10 mg/kg/day Plasma” value was determined as 0.082 µM. In addition, in series [3] (setting [6]), the “RIPA Insoluble Aβ1-42” value was found to be 4581 ± 489.3 pg/mg protein and the “RIPA Soluble Aβ1-42” value is 16.57 ± 3.359 pg/mg protein. The “levels of soluble or insoluble Aβ1–42” value in series [3] (therapeutic paradigm, AD mice) is listed as “did not reduce the levels of either soluble or insoluble Aβ1–42”. Also, the neurogenic activity result in series [4] is “enhanced neurogenic activity over J147”.
